Measured values as given in patent US6465614B1, “High-affinity response-selective C-terminal analogs of C5a anaphylatoxin” (priority 1994, dated 2002).
Where two headings read alike, the source gives them in different places. Square brackets hold non-standard residues; d marks the D form. Ends that are not written are not given here. Peptide text beside a SMILES is read from it.

T1: human neutrophils (PMN) (Homo sapiens, UniProt P21730)
T1 sequence (P21730 1-350): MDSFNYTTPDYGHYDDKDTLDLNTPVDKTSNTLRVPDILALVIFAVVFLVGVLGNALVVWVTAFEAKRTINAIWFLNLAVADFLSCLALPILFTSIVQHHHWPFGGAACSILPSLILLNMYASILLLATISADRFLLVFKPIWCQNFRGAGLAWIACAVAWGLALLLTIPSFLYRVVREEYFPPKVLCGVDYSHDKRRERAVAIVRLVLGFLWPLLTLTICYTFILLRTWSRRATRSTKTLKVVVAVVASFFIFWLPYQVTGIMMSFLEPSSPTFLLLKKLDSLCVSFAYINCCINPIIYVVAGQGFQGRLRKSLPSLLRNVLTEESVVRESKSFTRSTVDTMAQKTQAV

T2: human fetal artery (Homo sapiens, UniProt P21730)
T2 sequence (P21730 1-350): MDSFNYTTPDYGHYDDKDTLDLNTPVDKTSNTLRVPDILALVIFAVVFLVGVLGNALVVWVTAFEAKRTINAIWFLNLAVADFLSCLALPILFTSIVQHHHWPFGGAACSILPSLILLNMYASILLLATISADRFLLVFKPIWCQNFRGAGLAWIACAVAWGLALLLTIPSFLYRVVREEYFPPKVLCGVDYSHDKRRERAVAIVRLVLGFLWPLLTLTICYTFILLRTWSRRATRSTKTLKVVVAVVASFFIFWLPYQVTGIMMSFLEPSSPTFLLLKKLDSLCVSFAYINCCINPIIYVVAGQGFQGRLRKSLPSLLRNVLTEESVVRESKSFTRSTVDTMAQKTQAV


Experiments:
[1] = tested on: guinea-pig platelets; test: Guinea-pig platelet aggregation assay; assay type: cell-based; settings: for Platelet Aggreg (threshold concentration producing visible platelet aggregation): guinea-pig platelets, threshold response
Method: This assay was performed on platelets obtained from the arterial blood of anesthetized male Hartley guinea pigs according to previously published methods (Ember et al., 1992, supra). Briefly, platelet-rich plasma was prepared and diluted to 3×10^8 platelets/ml in 0.39% sodium citrate solution. Peptide samples were diluted in a stepwise fashion in 1.5-fold dilutions and placed in 96-well microplates. A […] peptide sample, […] of platelet-rich plasma, and one 3 mm glass bead were placed in each well. The plates were shaken horizontally at 100 rpm for 5 min at 37° C. Platelet aggregation was evaluated visually in an inverted microscope at 40× magnification. The greatest dilution of peptide producing visible aggregation was scored as the threshold concentration for activity. Natural C5a and C3a were included as internal standards. At least three independent duplicate determinations were conducted for every peptide.

[2] = molecular target: T1, human neutrophils (PMN); assay type: cell-based
Method: Neutrophil polarization assays were conducted as described by Ember et al., 1992, supra. Human neutrophils (PMN) were prepared according to the procedure described by Dahinden et al. (1979), J. Immunol., 130: 857-862. The assay for measuring the effect of C5a analogs on PMN polarization was described by Haston & Shields (1985), J. Immunol. Methods, 81: 229-237. Briefly, PMN (1×10^6 cells/ml) were suspended in 10 mM 3- (N-morpholino) propane sulfonic acid (Sigma Chemical Co.) containing EBSS. […] After 10 minutes of incubation at room temperature, the cells were washed twice and stored until microscopic examination. Cells deviating from the typical spherical shape were visually scored as polarized. Results are expressed as percent of polarized cells per total cells counted (300 cells counted/sample).

[3] = molecular target: T1, human neutrophils (PMN); assay type: cell-based; remark: listed apart in the source
Method: The release of glucuronidase from human neutrophils was determined as described by Schroder et al. (1987), J. Immunol., 139: 3474-3483. Briefly, human neutrophils were pretreated with cytochalasin B (5 μg/ml, 10 min, 37° C.). The cells (10^6) were incubated in the presence of stimulants for 60 minutes at 37° C. in a final volume of 200 μl and then centrifuged. The supernatant was collected and 50 μl were incubated with 50 μl of 0.01 M P-nitrophenyl-β-D-glucuronide (in 0.1 M sodium acetate at pH 4 for 18 h) as triplicate determinations in 96-well microtiter plates (Corning). The reaction was stopped by addition of 100 μl of 0.4 M gly buffer at pH 10. The reaction developed color that was read at 405 nm in a Titertec Multiscan (MCC/340) ELISA reader. The β-glucuronidase released was expressed as the percentage of total enzyme in the cell that could be released by addition of 0.2% Triton X-100 (Pierce).

[4] = molecular target: T2, human fetal artery; test: Smooth muscle contraction of human fetal artery (spasmogenic assay); assay type: cell-based
Method: Tissue strips were suspended in 2 ml organ baths, containing physiological salt solution (Krebs-Ringers solution: 118 mM NaCl, 4.7 mM KCl, 2.5 mM CaCl2, 25 mM NaHCO3, 1.2 mM KH2PO4, 1.2 mM MgSO4, 10 mM Glucose) maintained at 37° C., pH 7.4 and continuously aerated with a […] mixture. Each tissue preparation was equilibrated for 1 hr prior to testing with peptides. All drugs were kept on ice during the procedure and isometric tensions were measured using strain-gauge transducers (Grass FT-03) with a computerized chart recording system (MacLab/8). After the contraction to each peptide reached a plateau, histamine (10 μM) was added to obtain the maximum tissue response. Because tachyphylaxis occurs rapidly to single doses of C5a or peptides, cumulative dose-response curves could not be obtained. Instead, the dose-response profile was compiled from multiple strips from each tissue. After exposing each strip to a single concentration of the peptide followed by supramaximal histamine, the response was expressed as a percentage of the maximal contraction to histamine. Full dose-response curves for C5a (human recombinant C5a; Sigma) or individual peptides were performed in each experiment for each tissue and the EC50 values (i.e., concentration of peptide producing 50t of the maximal response to each peptide) obtained by probit analysis. pD2 transforms [−log EC50 (M)] were calculated for each dose-response curve, and means ±SE obtained for each peptide.
Human umbilical cords were obtained from the Mater Misericordiae Hospital, South Brisbane, Queensland within minutes of delivery. The mid-section of the umbilical cord was cut from the placenta, placed in physiological salt solution and stored at 5° C. for up to 24 hrs. […] The fetal arteries were dissected out and cut into longitudinal strips. The intimal surface of the arteries was rubbed with a cotton bud to remove the endothelium. Strips approximately 2 cm×3 mm were suspended in organ baths under 20 mN of resting tension. Arterial strips were tested repeatedly with peptides following a 60 min drug-free period of rest between assays (Taylor et al. (1994), Inflammation, in press).

[5] = tested on: serum carboxypeptidases; test: Stability toward serum carboxypeptidases (incubation in normal human serum, HPLC); assay type: in vitro ADME; settings: 37° C., 1 h
Method: FIG. 10. HPLC profiles of decapeptide analogs. FIG. 10A: HPLC of […] (peptide/Sequence I.D. No. 2); a=purified peptide; b=des-Arg peptide ([…]; Sequence I.D. No. 24); c=des-Arg peptide in saline, no incubation; d=des-Arg peptide in saline with incubation for 1 h at 37° C.; e=des-Arg peptide in normal human serum with incubation for 1 h at 37° C. FIG. 10B: HPLC of […]aR (Sequence I.D. No. 10); a=purified peptide; b=peptide in saline, no incubation; c=peptide in saline with incubation for 1 h at 37° C.; d=peptide in normal human serum with incubation for 1 h at 37° C. Solvent system 1: 70 mM triethylamine/phosphoric acid buffer, pH-2.3. Solvent system 2: 60% acetonitrile in the Solvent 1 buffer. Linear gradient of 30-50% solvent 2 at.1%/min, slope=1 ml/min, absorbance monitored at 214 nm.
Both peptides were incubated in normal human serum at 37° C. for 1 h and thereafter reanalyzed on HPLC.

Molecule | Platelet Aggreg (threshold concentration producing visible platelet aggregation) [1] | EC50 [2] | further results
CC(C)C[C@H](NC(=O)[C@@H]1CCCN1C(=O)[C@H](CS)NC(=O)[C@H](CC(=O)O)NC(=O)[C@H](CCCCN)NC(=O)[C@H](Cc1ccccc1)NC(=O)[C@H](CO)NC(=O)[C@@H](N)Cc1ccc(O)cc1)C(=O)N[C@@H](CS)C(=O)N[C@@H](CCCNC(=N)N)C(=O)O [peptide 17] (H-YSFKDCPLCR-OH; N-terminus assumed) | 4.1 µM | 224 µM | 
YSFKDMPPGR-OH [peptide 6] | 80 µM | 50 µM | EC50 [3]: 700 µM
YSFKDMPLGR-OH [peptide 5] | 6.3 µM |  | increase in potency in spasmogenic and aggregatory activities relative to peptide 2 ([4]; across spasmogenic and platelet aggregation assays (Tables 2 and 3)): 4- to 10 fold; log potency ratio at the EC50 level compared to C5a ([4]; fetal artery): 2.01±0.12; % of C5a potency ([4]; fetal artery, from log potency ratio at EC50 level): 1%
CSCC[C@H](NC(=O)[C@H](CC(=O)O)NC(=O)[C@H](CCCCN)NC(=O)[C@H](Cc1ccccc1)NC(=O)[C@H](CO)NC(=O)[C@@H](N)Cc1ccc(O)cc1)C(=O)N[C@@H](CCC(N)=O)C(=O)N[C@@H](CC(C)C)C(=O)N[C@@H](C)C(=O)N[C@@H](CCCNC(=N)N)C(=O)O [peptide 7] | 34 µM | 48 µM | EC50 [3]: 1000 µM
YSFKGMPLGR-OH [peptide 23] | 6.3 µM | 2 µM | EC50 [3]: 49.6 µM
CC(C)C[C@@H]1NC(=O)[C@@H]2CCCN2C(=O)[C@@H](NC(=O)[C@H](CC(=O)O)NC(=O)[C@H](CCCCN)NC(=O)[C@H](Cc2ccccc2)NC(=O)[C@H](CO)NC(=O)[C@@H](N)Cc2ccc(O)cc2)CSSC[C@@H](C(=O)N[C@@H](CCCNC(=N)N)C(=O)O)NC1=O [peptide 18] (HELM PEPTIDE1{Y.S.F.K.D.C.P.L.C.R}$PEPTIDE1,PEPTIDE1,6:R3-9:R3$$$V2.0) | >410 µM |  | 
YSFKGMLLGR-OH [peptide 20] | 10.5 µM |  | potency compared with peptide 2 in human fetal artery ([4]; in words): about two times more potent; potency compared with peptide 2 in guinea-pig platelet assay ([1]; in words): about two times more potent
CSCC[C@H](NC(=O)CNC(=O)[C@H](CCCCN)NC(=O)[C@H](Cc1ccccc1)NC(=O)[C@H](CO)NC(=O)[C@@H](N)Cc1ccc(O)cc1)C(=O)N[C@@H](CC(C)C)C(=O)N[C@@H](CC(C)C)C(=O)NCC(=O)N[C@H](CCCNC(=N)N)C(=O)O [peptide 22] (HELM PEPTIDE1{Y.S.F.K.G.M.L.L.G.[dR]}$$$$V2.0; N-terminus and C-terminus assumed) |  |  | agonist character compared to natural C5a in spasmogenic assays ([4]; in words): full agonist of diminished potency; antagonist activity against C5a ([4]; tested at concentrations below those causing contraction or aggregation): devoid of any antagonistic activity
ISFKDMQLGR-OH [peptide 1] | 86.3 µM |  | 
YSFKDMPAGR-OH [peptide 11] | 101 µM | 215 µM | 
YSFKDMQPGR-OH [peptide 4] | 500 µM |  | 
YSFKDMQIGR [peptide 9] | 150 µM |  | 
YSFKDMQLPR-OH [peptide 3] | 225 µM | 500 µM | 
YSFKDCPLGR-OH [peptide 16] | 2.3 µM | 19.5 µM | 
YSFKGLLLGR-OH [peptide 21] | 21 µM |  | 
YSFKPMQLaR (YSFKPMQL[dA]R) [peptide 24] |  |  | potency relative to natural C5a for elicitation of a spasmogenic response (Class 1) ([4]; smooth muscle contraction assay, percent of natural/full C5a potency): 20-30%
YSFKDAPLGR-OH [peptide 15] | 7.4 µM |  | 
CSCC[C@H](NC(=O)[C@H](CC(=O)O)NC(=O)[C@H](CCCCN)NC(=O)[C@H](Cc1ccccc1)NC(=O)[C@H](CO)NC(=O)[C@@H](N)Cc1ccc(O)cc1)C(=O)N[C@@H](CCC(N)=O)C(=O)N[C@@H](CC(C)C)C(=O)N[C@H](C)C(=O)N[C@@H](CCCNC(=N)N)C(=O)O [peptide 8] | 20 µM | 1.2 µM | EC50 [3]: 32 µM
YSFKDMQLGR [peptide 2] |  |  | cleavage of the C-terminal Arg [5]: significant cleavage
C5a: C5a anaphylatoxin, 74-residue human glycoprotein; human recombinant C5a (Sigma) or natural C5a used as standard (protein, UniProt P01031 678-751, looked up, C5a anaphylatoxin, C5a anaphylatoxin, 74-residue human glycoprotein; human recombinant C5a (Sigma) or natural C5a used as standard) C5a anaphylatoxin: TLQKKIEEIAAKYKHSVVKKCCYDGACVNNDETCEQRAARISLGPRCIKAFTECCVVASQLRANISHKDMQLGR | 0.023 µM |  | EC50 ([3]; human neutrophils, β-glucuronidase release, read-out: PMN Enzyme Release EC50): 0.0123 µM; EC50 ([4]; human fetal artery contraction, mean EC50 from individual experiments): 0.018 µM; EC50 ([2]; human neutrophils, read-out: PMN Polarization EC50): 0.0013 µM
